{
  "source": "ChEMBL document CHEMBL5584340",
  "about": "“Discovery of Novel Antiosteoporosis Leads with Bone Resorption Inhibition and Anabolic Promotion through a Chemotype-Assembly Approach” (J Med Chem, 2024)",
  "key": {"[1]": {"experiment": "Toxicity in OVX-induced osteoporosis C57BL/6 mouse model assessed as change in body weight at 30 mg/kg,po administrated for 1 week", "format": "organism-based", "settings": "in vivo, 168 h, time 1 weeks"}, "[2]": {"experiment": "Cytotoxicity against mouse RAW264.7 cells incubated for 48 hrs by CCK-8 assay", "format": "toxicity, cell-based"}, "[3]": {"experiment": "Toxicity in OVX-induced osteoporosis C57BL/6 mouse model assessed as change in water intake at 30 mg/kg,po administrated for 1 week", "format": "organism-based", "settings": "in vivo, 168 h, time 1 weeks"}, "Mus musculus [4]": {"test_system": "Mus musculus", "experiment": "Anti-osteoporosis activity in OVX-induced osteoporosis C57BL/6 mouse model assessed as increase in BV/TV in femur at 10 mg/kg,po administrated for 4 weeks by Micro-CT analysis", "format": "functional, organism-based"}, "Mus musculus [5]": {"test_system": "Mus musculus", "experiment": "Anti-osteoporosis activity in OVX-induced osteoporosis C57BL/6 mouse model assessed as increase in serum osteocalcin level at 10 mg/kg,po administrated for 4 weeks", "format": "functional, organism-based"}, "C3H 10T1/2 [6]": {"test_system": "C3H 10T1/2", "experiment": "Induction of osteoclastogenesis in mouse C3H 10T1/2 cells assessed as upregulation of RANKL gene expression at 1 uM incubated for 7 days by RT-qPCR analysis", "format": "functional, cell-based", "settings": "time 7.0 day"}, "Mus musculus [7]": {"test_system": "Mus musculus", "experiment": "Anti-osteoporosis activity in OVX-induced osteoporosis C57BL/6 mouse model assessed as increase in trabecular number in femur at 10 mg/kg,po administrated for 4 weeks by Micro-CT analysis", "format": "functional, organism-based"}, "[8]": {"experiment": "Toxicity in OVX-induced osteoporosis C57BL/6 mouse model assessed as change in stool state at 30 mg/kg,po administrated for 1 week", "format": "organism-based", "settings": "in vivo, 168 h, time 1 weeks"}, "[9]": {"experiment": "Toxicity in OVX-induced osteoporosis C57BL/6 mouse model assessed as change in serum creatinine level at 10 mg/kg,po administrated for 4 week", "format": "organism-based", "settings": "in vivo, 672 h, time 4 weeks"}, "BMDM [10]": {"test_system": "BMDM", "experiment": "Anti-osteoclastogenic activity in M-CSF/RANKL-induced C57BL/6 mouse BMDM cells assessed as inhibition of M-CSF/RANKL-stimulated osteoclast differentiation measured after 5 days by TRAP staining based microscopic analysis", "format": "functional, cell-based", "settings": "C57BL/6, BMDM, 120 h"}, "Mus musculus [11]": {"test_system": "Mus musculus", "experiment": "Anti-osteoporosis activity in OVX-induced osteoporosis C57BL/6 mouse model assessed as increase in […] in femur at 10 mg/kg,po administrated for 4 weeks by Micro-CT analysis", "format": "functional, organism-based"}, "BMDM [12]": {"test_system": "BMDM", "experiment": "Anti-osteoclastogenic activity in M-CSF/RANKL-induced C57BL/6 mouse BMDM cells assessed as fold change in inhibition of M-CSF/RANKL-stimulated osteoclast differentiation at 10 uM measured after 5 days by TRAP staining based microscopic analysis relative to control", "format": "functional", "settings": "time 5 day"}, "Mus musculus [13]": {"test_system": "Mus musculus", "experiment": "Anti-osteoporosis activity in OVX-induced osteoporosis C57BL/6 mouse model assessed as prevention of bone loss in femur at 10 mg/kg,po administrated for 4 weeks by Micro-CT analysis", "format": "functional, organism-based"}, "C3H 10T1/2 [14]": {"test_system": "C3H 10T1/2", "experiment": "Induction of osteoblastogenesis in mouse C3H 10T1/2 cells assessed as upregulation of ALP gene expression at 1 uM incubated for 7 days by RT-qPCR analysis", "format": "functional, cell-based", "settings": "time 7.0 day"}, "C3H 10T1/2 [15]": {"test_system": "C3H 10T1/2", "experiment": "Induction of osteoblastogenesis in mouse C3H 10T1/2 cells assessed as upregulation of SPARC gene expression at 1 uM incubated for 7 days by RT-qPCR analysis", "format": "functional, cell-based", "settings": "time 7.0 day"}, "C3H 10T1/2 [16]": {"test_system": "C3H 10T1/2", "experiment": "Induction of osteoblast mineralization in mouse C3H 10T1/2 cells assessed as increase in calcium deposition at 1 uM measured after 14 days by Alizarin Red S staining based analysis", "format": "functional, cell-based", "settings": "time 14.0 day"}, "BMDM [17]": {"test_system": "BMDM", "experiment": "Anti-osteoclastogenic activity in M-CSF/RANKL-induced C57BL/6 mouse BMDM cells assessed as downregulation of C-Fos mRNA expression at 1 uM incubated for 7 days by RT-qPCR analysis", "format": "functional, cell-based", "settings": "time 7.0 day"}, "[18]": {"experiment": "Toxicity in OVX-induced osteoporosis C57BL/6 mouse model assessed as change in urine color at 30 mg/kg,po administrated for 1 week", "format": "organism-based", "settings": "in vivo, 168 h, time 1 weeks"}, "BMDM [19]": {"test_system": "BMDM", "experiment": "Anti-osteoclastogenic activity in M-CSF/RANKL-induced C57BL/6 mouse BMDM cells assessed as downregulation of ATP6VOD2 mRNA expression at 1 uM incubated for 7 days by RT-qPCR analysis", "format": "functional, cell-based", "settings": "time 7.0 day"}, "BMDM [20]": {"test_system": "BMDM", "experiment": "Anti-osteoclastogenic activity in M-CSF/RANKL-induced C57BL/6 mouse BMDM cells assessed as downregulation of CTSK mRNA expression at 1 uM incubated for 7 days by RT-qPCR analysis", "format": "functional, cell-based", "settings": "time 7.0 day"}, "Mus musculus [21]": {"test_system": "Mus musculus", "experiment": "Anti-osteoporosis activity in OVX-induced osteoporosis C57BL/6 mouse model assessed as increase in trabecular thickness in femur at 10 mg/kg,po administrated for 4 weeks by Micro-CT analysis", "format": "functional, organism-based"}, "[22]": {"experiment": "Toxicity in OVX-induced osteoporosis C57BL/6 mouse model assessed as change in mental state at 30 mg/kg,po administrated for 1 week", "format": "organism-based", "settings": "in vivo, 168 h, time 1 weeks"}, "[23]": {"experiment": "Toxicity in OVX-induced osteoporosis C57BL/6 mouse model assessed as change in hair color at 30 mg/kg,po administrated for 1 week", "format": "organism-based", "settings": "in vivo, 168 h, time 1 weeks"}, "Mus musculus [24]": {"test_system": "Mus musculus", "experiment": "Anti-osteoporosis activity in OVX-induced osteoporosis C57BL/6 mouse model assessed as increase in serum PINP level at 10 mg/kg,po administrated for 4 weeks", "format": "functional, organism-based"}, "[25]": {"experiment": "Toxicity in OVX-induced osteoporosis C57BL/6 mouse model assessed as change in serum urea nitrogen level at 10 mg/kg,po administrated for 4 week", "format": "organism-based", "settings": "in vivo, 672 h, time 4 weeks"}, "[26]": {"experiment": "Toxicity in OVX-induced osteoporosis C57BL/6 mouse model assessed as change in serum AST level at 10 mg/kg,po administrated for 4 week", "format": "organism-based", "settings": "in vivo, 672 h, time 4 weeks"}, "Mus musculus [27]": {"test_system": "Mus musculus", "experiment": "Anti-osteoporosis activity in OVX-induced osteoporosis C57BL/6 mouse model assessed as decrease in serum CTX-I level at 10 mg/kg,po administrated for 4 weeks", "format": "functional, organism-based"}, "[28]": {"experiment": "Toxicity in OVX-induced osteoporosis C57BL/6 mouse model assessed as change in serum triglyceride level at 10 mg/kg,po administrated for 4 week", "format": "organism-based", "settings": "in vivo, 672 h, time 4 weeks"}, "BMDM [29]": {"test_system": "BMDM", "experiment": "Anti-osteoclastogenic activity in M-CSF/RANKL-induced C57BL/6 mouse BMDM cells assessed as downregulation of TRACP mRNA expression at 1 uM incubated for 7 days by RT-qPCR analysis", "format": "functional, cell-based", "settings": "time 7.0 day"}, "[30]": {"experiment": "Toxicity in OVX-induced osteoporosis C57BL/6 mouse model assessed as change in serum ALT level at 10 mg/kg,po administrated for 4 week", "format": "organism-based", "settings": "in vivo, 672 h, time 4 weeks"}, "[31]": {"experiment": "Toxicity in OVX-induced osteoporosis C57BL/6 mouse model assessed as change in serum total cholesterol level at 10 mg/kg,po administrated for 4 week", "format": "organism-based", "settings": "in vivo, 672 h, time 4 weeks"}, "C3H 10T1/2 [32]": {"test_system": "C3H 10T1/2", "experiment": "Induction of osteoblast differentiation in mouse C3H 10T1/2 cells at 1 uM incubated for 7 days by ALP staining based analysis", "format": "functional, cell-based", "settings": "time 7.0 day"}, "C3H 10T1/2 [33]": {"test_system": "C3H 10T1/2", "experiment": "Induction of osteoblastogenesis in mouse C3H 10T1/2 cells assessed as upregulation of SP7 gene expression at 1 uM incubated for 7 days by RT-qPCR analysis", "format": "functional, cell-based", "settings": "time 7.0 day"}},
  "note": "Active and inactive are the calls of the source. No cut-off for these calls is given here.",
  "data": [
    {"compound": "O=C(O)c1cc2ccccc2cc1C(=O)Nc1nc2ccccc2s1", "values": [
      {"measurement": "Activity", "setting": "[1]", "value": "Non-Toxic"},
      {"measurement": "CC50 at 48 h", "setting": "[2]", "value": 65.5, "unit": "µM"},
      {"measurement": "Activity", "setting": "[3]", "value": "Non-Toxic"},
      {"measurement": "Activity", "setting": "Mus musculus [4]", "value": "Active"},
      {"measurement": "Activity", "setting": "Mus musculus [5]", "value": "Active"},
      {"measurement": "Activity", "setting": "C3H 10T1/2 [6]", "value": "inactive"},
      {"measurement": "Activity", "setting": "Mus musculus [7]", "value": "Active"},
      {"measurement": "Activity", "setting": "[8]", "value": "Non-Toxic"},
      {"measurement": "Activity", "setting": "[9]", "value": "Non-Toxic"},
      {"measurement": "IC50", "setting": "BMDM [10]", "value": 0.4, "unit": "µM"},
      {"measurement": "Activity", "setting": "Mus musculus [11]", "value": "Active"},
      {"measurement": "fold change (FC)", "setting": "BMDM [12]", "value": 21.25},
      {"measurement": "Activity", "setting": "Mus musculus [13]", "value": "Active"},
      {"measurement": "Activity", "setting": "C3H 10T1/2 [14]", "value": "Active"},
      {"measurement": "Activity", "setting": "C3H 10T1/2 [15]", "value": "Active"},
      {"measurement": "Activity", "setting": "C3H 10T1/2 [16]", "value": "Active"},
      {"measurement": "Activity", "setting": "BMDM [17]", "value": "Active"},
      {"measurement": "Activity", "setting": "[18]", "value": "Non-Toxic"},
      {"measurement": "Activity", "setting": "BMDM [19]", "value": "Active"},
      {"measurement": "Activity", "setting": "BMDM [20]", "value": "Active"},
      {"measurement": "Activity", "setting": "Mus musculus [21]", "value": "Active"},
      {"measurement": "Activity", "setting": "[22]", "value": "Non-Toxic"},
      {"measurement": "Activity", "setting": "[23]", "value": "Non-Toxic"},
      {"measurement": "Activity", "setting": "Mus musculus [24]", "value": "Active"},
      {"measurement": "Activity", "setting": "[25]", "value": "Non-Toxic"},
      {"measurement": "Activity", "setting": "[26]", "value": "Non-Toxic"},
      {"measurement": "Activity", "setting": "Mus musculus [27]", "value": "Active"},
      {"measurement": "Activity", "setting": "[28]", "value": "Non-Toxic"},
      {"measurement": "Activity", "setting": "BMDM [29]", "value": "Active"},
      {"measurement": "Activity", "setting": "[30]", "value": "Non-Toxic"},
      {"measurement": "Activity", "setting": "[31]", "value": "Non-Toxic"},
      {"measurement": "Activity", "setting": "C3H 10T1/2 [32]", "value": "Active"},
      {"measurement": "Activity", "setting": "C3H 10T1/2 [33]", "value": "Active"}
    ]}
  ]
}
